Measured values as given in ChEMBL document CHEMBL1147909, “Methylenedisalicylic acid derivatives: new PTP1B inhibitors that confer resistance to diet-induced obesity” (Bioorg Med Chem Lett, 2007).
Values belong to the compound of their own block, whether it stands above or below them.

Legend:
[1] = target: T1, Tyrosine-protein phosphatase non-receptor type 1 (Homo sapiens, UniProt P18031); assay: Inhibition of PTP1B after 10 mins
T1 sequence (P18031 whole entry): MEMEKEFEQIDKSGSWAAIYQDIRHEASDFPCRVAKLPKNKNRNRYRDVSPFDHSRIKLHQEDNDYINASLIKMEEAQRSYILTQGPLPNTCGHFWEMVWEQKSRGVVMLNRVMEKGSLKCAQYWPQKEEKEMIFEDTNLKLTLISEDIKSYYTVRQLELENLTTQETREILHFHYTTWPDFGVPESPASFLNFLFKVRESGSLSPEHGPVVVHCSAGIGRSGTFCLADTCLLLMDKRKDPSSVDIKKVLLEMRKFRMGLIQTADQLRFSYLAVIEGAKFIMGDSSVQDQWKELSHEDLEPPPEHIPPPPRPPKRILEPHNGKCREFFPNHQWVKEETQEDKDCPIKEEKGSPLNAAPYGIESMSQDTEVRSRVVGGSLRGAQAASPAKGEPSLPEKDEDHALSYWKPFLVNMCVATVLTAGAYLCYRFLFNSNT

Homo sapiens = organism: Homo sapiens; assay: Selectivity for PTP1B over TC-PTP
[2] = target: Tyrosine-protein phosphatase non-receptor type 6 (Homo sapiens, UniProt P29350); assay: Inhibition of SHP-1 catalytic domain
Mus musculus [3] = assay: Effect on high fat diet induced obesity in C57BL/6J Jms Slc mouse assessed as epididymal adipose tissue weight at 5 g/kg; format: functional
Mus musculus [4] = assay: Effect on high fat diet induced obesity in C57BL/6J Jms Slc mouse assessed as liver weight at 5 g/kg; format: functional
[5] = target: T2, Tyrosine-protein phosphatase non-receptor type 2 (Homo sapiens, UniProt P17706); assay: Inhibition of TC-PTP
T2 sequence (P17706 whole entry): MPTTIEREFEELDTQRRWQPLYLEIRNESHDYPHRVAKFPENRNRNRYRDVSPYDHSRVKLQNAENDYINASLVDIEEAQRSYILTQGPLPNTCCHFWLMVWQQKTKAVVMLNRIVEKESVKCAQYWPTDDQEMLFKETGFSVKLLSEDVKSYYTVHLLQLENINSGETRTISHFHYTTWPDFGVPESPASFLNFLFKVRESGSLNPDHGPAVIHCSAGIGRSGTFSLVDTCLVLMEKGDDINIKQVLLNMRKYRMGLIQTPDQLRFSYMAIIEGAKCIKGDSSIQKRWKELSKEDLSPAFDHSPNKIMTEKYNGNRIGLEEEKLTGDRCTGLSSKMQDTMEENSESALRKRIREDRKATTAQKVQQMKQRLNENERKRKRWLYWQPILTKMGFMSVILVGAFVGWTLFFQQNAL

Mus musculus [6] = assay: Effect on high fat diet induced obesity in C57BL/6J Jms Slc mouse assessed as retroperitoneal adipose tissue weight at 5 g/kg; format: functional
Mus musculus [7] = assay: Effect on high fat diet induced obesity in C57BL/6J Jms Slc mouse assessed as body weight at 5 g/kg; format: functional
[8] = Inhibition of LAR Tyrosine phosphatase D1; set-up: species or system Homo sapiens
[9] = target: T3, Tyrosine-protein phosphatase 1 (Saccharomyces cerevisiae S288c, UniProt P25044); assay: Inhibition of yeast PTP1
T3 sequence (P25044 whole entry): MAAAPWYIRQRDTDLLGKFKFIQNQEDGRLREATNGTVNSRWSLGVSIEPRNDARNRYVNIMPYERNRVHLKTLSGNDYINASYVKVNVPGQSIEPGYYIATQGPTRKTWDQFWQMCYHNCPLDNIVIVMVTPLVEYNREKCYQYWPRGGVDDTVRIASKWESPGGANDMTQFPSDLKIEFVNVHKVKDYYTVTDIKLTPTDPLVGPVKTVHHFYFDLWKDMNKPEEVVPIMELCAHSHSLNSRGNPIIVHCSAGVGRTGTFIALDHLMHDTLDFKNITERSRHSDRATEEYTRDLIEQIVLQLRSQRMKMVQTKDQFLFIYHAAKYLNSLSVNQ

Tyrosine-protein phosphatase non-receptor type 6, sequence (P29350 whole entry, the tested form may be a part): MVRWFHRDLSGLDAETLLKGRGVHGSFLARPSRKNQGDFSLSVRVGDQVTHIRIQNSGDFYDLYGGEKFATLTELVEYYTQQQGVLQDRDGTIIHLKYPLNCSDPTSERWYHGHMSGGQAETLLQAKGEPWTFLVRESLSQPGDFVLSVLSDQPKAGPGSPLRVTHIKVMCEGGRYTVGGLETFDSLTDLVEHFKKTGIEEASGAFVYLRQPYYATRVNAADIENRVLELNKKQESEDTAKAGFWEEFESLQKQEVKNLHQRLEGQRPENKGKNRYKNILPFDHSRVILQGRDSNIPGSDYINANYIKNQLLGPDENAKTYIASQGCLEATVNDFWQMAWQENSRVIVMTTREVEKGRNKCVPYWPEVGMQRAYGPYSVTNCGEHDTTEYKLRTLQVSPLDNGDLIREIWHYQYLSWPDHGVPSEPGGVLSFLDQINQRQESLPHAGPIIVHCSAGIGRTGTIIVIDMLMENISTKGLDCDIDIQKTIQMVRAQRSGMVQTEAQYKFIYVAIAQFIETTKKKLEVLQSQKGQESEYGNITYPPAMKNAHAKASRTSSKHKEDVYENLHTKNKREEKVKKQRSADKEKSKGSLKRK

IC50 [1]: 39 µM
SMILES: O=C(O)c1cc(Cc2cc(C(=O)O)c(O)c(-c3ccco3)c2)cc(-c2ccco2)c1O

IC50 [1]: > 1000 µM
SMILES: Cc1cc(Cc2cc(C)c(O)c(C(=O)O)c2)cc(C(=O)O)c1O

IC50 [1]: 78 µM
SMILES: O=C(O)c1cc(Cc2cc(Br)c(O)c(C(=O)O)c2)cc(Br)c1O

IC50 [1]: 242 µM
SMILES: O=C(O)c1cc(Cc2cc(Cl)c(O)c(C(=O)O)c2)cc(Cl)c1O

Further lines, the compound ahead of its results:

SMILES: O=C(O)C(=O)Nc1sc2c(c1C(=O)O)CCNC2
IC50 [1]: 500 µM | Ki [1]: 11.5 µM

SMILES: O=C(O)c1cc(Cc2cc(C(=O)O)c(O)c(-c3ccccc3)c2)cc(-c2ccccc2)c1O
Selectivity ratio (Homo sapiens): > 10 | IC50 [2]: 51 µM | Ki [2]: 17 µM | Activity (Mus musculus [3]): 0.86 g | Activity (Mus musculus [4]): 1.03 g | IC50 [5]: 291 µM | Ki [5]: 64 µM | Activity (Mus musculus [6]): 0.26 g | Activity (Mus musculus [7]): 29.2 g | IC50 [1]: 20 µM | Ki [1]: 9.4 µM | IC50 [8]: > 2000 µM | IC50 [9]: 234 µM

SMILES: COc1cc(Cc2cc(OC)c(O)c(C(=O)O)c2)cc(C(=O)O)c1O
IC50 [1]: > 1000 µM

SMILES: O=C(O)c1cc(Cc2cc(Cc3ccccc3)c(O)c(C(=O)O)c2)cc(Cc2ccccc2)c1O
Selectivity ratio (Homo sapiens): > 10 | IC50 [2]: 32 µM | Ki [2]: 14 µM | IC50 [5]: 146 µM | Ki [5]: 25 µM | IC50 [1]: 15 µM | Ki [1]: 6.3 µM | IC50 [8]: > 2000 µM | IC50 [9]: 103 µM
